Here are results for 77 molecules from ChEMBL document CHEMBL1128468, “Amino acid side chain descriptors for quantitative structure-activity relationship studies of peptide analogues” (J Med Chem, 1995).

Peptide text beside a SMILES is read from it.

Angiotensin-converting enzyme, sequence (P12821 whole entry): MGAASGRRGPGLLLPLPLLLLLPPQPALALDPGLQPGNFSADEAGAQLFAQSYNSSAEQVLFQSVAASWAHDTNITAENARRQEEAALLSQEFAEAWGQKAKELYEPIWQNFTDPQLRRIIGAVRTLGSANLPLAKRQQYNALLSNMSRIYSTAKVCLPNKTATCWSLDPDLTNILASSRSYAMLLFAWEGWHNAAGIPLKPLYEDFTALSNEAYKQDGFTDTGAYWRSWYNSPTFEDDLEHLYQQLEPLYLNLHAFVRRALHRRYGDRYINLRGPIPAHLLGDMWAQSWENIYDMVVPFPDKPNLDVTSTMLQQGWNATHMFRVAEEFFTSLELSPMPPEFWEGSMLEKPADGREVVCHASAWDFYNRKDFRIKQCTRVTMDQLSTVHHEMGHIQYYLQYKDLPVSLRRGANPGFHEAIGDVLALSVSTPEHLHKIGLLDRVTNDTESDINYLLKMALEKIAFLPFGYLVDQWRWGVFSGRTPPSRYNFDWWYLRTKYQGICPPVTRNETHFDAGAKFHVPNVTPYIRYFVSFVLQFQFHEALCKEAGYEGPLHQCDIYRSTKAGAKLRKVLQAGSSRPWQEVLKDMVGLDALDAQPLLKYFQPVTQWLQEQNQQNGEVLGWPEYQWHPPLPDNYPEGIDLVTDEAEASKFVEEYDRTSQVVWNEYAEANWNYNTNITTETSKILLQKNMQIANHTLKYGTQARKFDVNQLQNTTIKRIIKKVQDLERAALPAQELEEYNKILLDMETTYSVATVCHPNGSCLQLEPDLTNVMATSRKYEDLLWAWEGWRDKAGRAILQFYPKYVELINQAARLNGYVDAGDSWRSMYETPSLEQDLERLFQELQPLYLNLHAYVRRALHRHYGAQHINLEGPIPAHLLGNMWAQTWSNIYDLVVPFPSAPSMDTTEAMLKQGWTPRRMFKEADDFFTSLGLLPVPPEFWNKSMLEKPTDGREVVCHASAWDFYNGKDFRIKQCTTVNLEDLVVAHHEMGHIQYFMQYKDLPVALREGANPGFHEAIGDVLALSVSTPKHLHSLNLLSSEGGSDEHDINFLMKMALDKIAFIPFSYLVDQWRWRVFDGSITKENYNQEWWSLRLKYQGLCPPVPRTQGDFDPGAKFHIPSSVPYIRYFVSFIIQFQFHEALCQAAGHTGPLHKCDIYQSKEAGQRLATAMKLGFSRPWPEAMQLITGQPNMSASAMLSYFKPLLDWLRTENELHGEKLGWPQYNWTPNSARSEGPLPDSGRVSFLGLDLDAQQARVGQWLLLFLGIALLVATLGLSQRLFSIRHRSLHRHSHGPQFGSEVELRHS

Test system in one assay: not listed separately
Kind of assay: Biological activity for bradykinin potentiating pentapeptide as the logarithm of the relative activity index compared to the reference molecule (Val-Glu-Ser-Ser-Lys). The class given is functional.
Conditions: not given
Take H-VAWAA-OH: the Log RAI amounted to 1.43.

Take `C[C@H](N)C(=O)N[C@@H](C)C(=O)N[C@@H](Cc1ccc(O)cc1)C(=O)N[C@@H](C)C(=O)N[C@@H](C)C(=O)O`: the Log RAI is 0.46.

As for `NCC(=O)NCC(=O)NCC(=O)NCC(=O)NCC(=O)O`, the Log RAI stood at 0.

Turning to H-VEAAK-OH, the Log RAI was 0.51.

Turning to H-FSPFR-OH, the Log RAI is 0.64.

Regarding H-AAWAA-OH, the Log RAI came to 0.75.

As for H-EKWAP-OH, the Log RAI turned out to be 1.3.

Regarding H-VEHAK-OH, the Log RAI was found to be 1.53.

H-LEAAK-OH: the Log RAI came to 0.4.

As for H-FEAAK-OH, the Log RAI is 0.3.

H-VAAWK-OH: the Log RAI is 0.23.

Take H-RYLPT-OH: the Log RAI was determined as 0.4.

H-VKWAP-OH: the Log RAI was 2.35.

H-VAWAK-OH: the Log RAI amounted to 1.45.

As for H-VKAAK-OH, the Log RAI is 0.11.

For H-GEAAK-OH, the Log RAI was -0.52.

In the case of H-VEGGK-OH, the Log RAI is -1.

For H-VEWVK-OH, the Log RAI was 1.71.

Regarding H-VWAAK-OH, the Log RAI was determined as 0.04.

For H-PGFSP-OH, the Log RAI was 0.9.

On to H-VEFAK-OH, for which the Log RAI was found to be 1.57.

Consider H-VEWAK-OH, for which the Log RAI came out at 2.73.

H-VESAK-OH: the Log RAI was found to be 0.28.

Take `C[C@H](N)C(=O)N[C@@H](C)C(=O)N[C@@H](C)C(=O)N[C@@H](C)C(=O)N[C@@H](C)C(=O)O`: the Log RAI is -0.1.

With H-VELAK-OH, the Log RAI stood at 0.59.

As for H-RKWAP-OH, the Log RAI was 1.98.

On to H-VAAAK-OH, for which the Log RAI was -0.1.

Take H-VEAAP-OH: the Log RAI amounted to 0.18.

On to H-VESSK-OH, for which the Log RAI was 0.

As for H-VKWAA-OH, the Log RAI worked out at 1.71.

As for H-VEASK-OH, the Log RAI is 0.2.

Another assay concerns the target Angiotensin-converting enzyme (Homo sapiens, UniProt P12821). Kind of assay: Biological activity was measured against Angiotensin I converting enzyme. As to conditions: read-out: Log 1/IC50 (converted).
Turning to `C[C@H](NC(=O)[C@@H](N)Cc1ccc(O)cc1)C(=O)O`, the IC50 is 0.457 mM.

Regarding `C[C@@H](O)[C@H](NC(=O)CN)C(=O)O` (H-Gly-Thr-OH), the IC50 is 5.75 mM.

Consider `CC(C)C[C@H](N)C(=O)N[C@@H](C)C(=O)O` [LEU-ALA] (H-Leu-Ala-OH), for which the IC50 is 0.309 mM.

`NCC(=O)N[C@@H](Cc1c[nH]c2ccccc12)C(=O)O` (H-Gly-Trp-OH): the IC50 was 0.0302 mM.

As for `C[C@H](NC(=O)[C@@H](N)CCCN=C(N)N)C(=O)O` (H-Arg-Ala-OH), the IC50 was 0.457 mM.

With `N=C(N)NCCC[C@H](NC(=O)[C@@H](N)Cc1ccccc1)C(=O)O` (H-Phe-Arg-OH), the IC50 is 0.912 mM.

On to `N[C@@H](Cc1c[nH]cn1)C(=O)NCC(=O)O` (H-His-Gly-OH), for which the IC50 is 6.31 mM.

`N[C@@H](CC(=O)O)C(=O)NCC(=O)O` (H-Asp-Gly-OH): the IC50 was 14.1 mM.

Turning to `NC(N)=NCCC[C@H](N)C(=O)N[C@@H](Cc1c[nH]c2ccccc12)C(=O)O` (H-Arg-Trp-OH), the IC50 is 0.0158 mM.

On to `C[C@H](N)C(=O)N[C@@H](C)C(=O)O` (H-Ala-Ala-OH), for which the IC50 was 0.617 mM.

Consider `CC(C)[C@H](N)C(=O)NCC(=O)O` [VAL-GLY] (H-Val-Gly-OH), for which the IC50 is 1.1 mM.

For `C[C@H](NC(=O)[C@@H](N)CCC(=O)O)C(=O)O` (H-Glu-Ala-OH), the IC50 was 10 mM.

Consider `NCC(=O)N[C@@H](CC(=O)O)C(=O)O` (H-Gly-Asp-OH), for which the IC50 was 9.12 mM.

For the molecule `NCC(=O)N[C@@H](CCC(N)=O)C(=O)O` (H-Gly-Gln-OH), the IC50 is 7.08 mM.

In the case of `CC(C)[C@H](NC(=O)CN)C(=O)O` (H-Gly-Val-OH), the IC50 is 4.57 mM.

As to `NC(=O)CC[C@H](N)C(=O)NCC(=O)O` (H-Gln-Gly-OH), the IC50 is 7.41 mM.

On to `NCC(=O)N[C@@H](Cc1c[nH]cn1)C(=O)O` (H-Gly-His-OH), for which the IC50 is 3.09 mM.

In the case of `NCC(=O)N[C@@H](CO)C(=O)O` (H-Gly-Ser-OH), the IC50 is 3.8 mM.

In the case of `NCCCC[C@H](N)C(=O)NCC(=O)O` (H-Lys-Gly-OH), the IC50 was 3.24 mM.

With `NCC(=O)NCC(=O)O` (H-Gly-Gly-OH), the IC50 was 7.24 mM.

For `CC[C@H](C)[C@H](N)C(=O)N[C@@H](Cc1ccccc1)C(=O)O` (H-Ile-Phe-OH), the IC50 was 0.933 mM.

For `CC(C)C[C@H](NC(=O)[C@@H](N)Cc1c[nH]cn1)C(=O)O` (H-His-Leu-OH), the IC50 is 3.24 mM.

As to `NCC(=O)N[C@@H](Cc1ccc(O)cc1)C(=O)O` (H-Gly-Tyr-OH), the IC50 is 0.209 mM.

Consider `C[C@H](NC(=O)CN)C(=O)O` (H-Gly-Ala-OH), for which the IC50 was 2 mM.

`C[C@H](N)C(=O)N[C@@H](Cc1c[nH]c2ccccc12)C(=O)O` (H-Ala-Trp-OH): the IC50 is 0.01 mM.

`CC[C@H](C)[C@H](NC(=O)CN)C(=O)O` (H-Gly-Ile-OH): the IC50 was 1.2 mM.

For the molecule `N[C@@H](Cc1c[nH]c2ccccc12)C(=O)NCC(=O)O` (H-Trp-Gly-OH), the IC50 is 5.89 mM.

For the molecule `C[C@H](O)[C@H](N)C(=O)NCC(=O)O`, the IC50 was 10 mM.

`N[C@@H](CCC(=O)O)C(=O)NCC(=O)O` (H-Glu-Gly-OH): the IC50 was 10 mM.

`CSCC[C@H](N)C(=O)NCC(=O)O` (H-Met-Gly-OH): the IC50 was 4.79 mM.

Regarding `N=C(N)NCCC[C@H](NC(=O)CN)C(=O)O` (H-Gly-Arg-OH), the IC50 is 3.24 mM.

As to `CC[C@H](C)[C@H](N)C(=O)N[C@@H](Cc1c[nH]c2ccccc12)C(=O)O`, the IC50 is 0.002 mM.

For `C[C@H](NC(=O)[C@@H](N)CCCCN)C(=O)O` (H-Lys-Ala-OH), the IC50 was 0.38 mM.

For `N[C@@H](CO)C(=O)NCC(=O)O` (H-Ser-Gly-OH), the IC50 was 8.51 mM.

For the molecule `CC(C)C[C@H](N)C(=O)NCC(=O)O` (H-Leu-Gly-OH), the IC50 is 8.71 mM.

On to `N=C(N)NCCC[C@H](N)C(=O)N1CCC[C@@H]1C(=O)O`, for which the IC50 is 0.182 mM.

`CC[C@H](C)[C@H](N)C(=O)N1CCCC1C(=O)O` (single isomer, unassigned): the IC50 was 0.129 mM.

Turning to `N=C(N)NCCC[C@H](N)C(=O)N[C@@H](Cc1ccccc1)C(=O)O`, the IC50 was 0.229 mM.

As for `C[C@H](NC(=O)[C@@H](N)CC(=O)O)C(=O)O` (H-Asp-Ala-OH), the IC50 was 3.8 mM.

Regarding `CC(C)[C@H](N)C(=O)N[C@@H](Cc1ccc(O)cc1)C(=O)O` (H-Val-Tyr-OH), the IC50 was 0.0219 mM.

For the molecule `C[C@H](N)C(=O)N[C@@H](Cc1ccc(O)cc1)C(=O)O` (H-Ala-Tyr-OH), the IC50 is 0.0871 mM.

In the case of `NCC(=O)N[C@@H](CCC(=O)O)C(=O)O` (H-Gly-Glu-OH), the IC50 was 5.37 mM.

Consider `NCCCC[C@H](NC(=O)CN)C(=O)O` (H-Gly-Lys-OH), for which the IC50 was 5.37 mM.

Consider `C[C@H](N)C(=O)NCC(=O)O` (H-Ala-Gly-OH), for which the IC50 was 2.51 mM.

Consider `CC[C@H](C)[C@H](N)C(=O)NCC(=O)O` (H-Ile-Gly-OH), for which the IC50 is 1.2 mM.

On to `CSCC[C@H](NC(=O)CN)C(=O)O`, for which the IC50 was 1.41 mM.
